Results from ChEMBL document CHEMBL3632485 (Eur J Med Chem, 2015).

How the values were obtained:
Carbonic anhydrase 9 = Carbonic anhydrase 9 (Homo sapiens, UniProt Q16790)
Description: Inhibition of human recombinant carbonic anhydrase 9 expressed in Escherichia coli preincubated for 6 hrs by stopped flow CO2 hydrase assay

Carbonic anhydrase 12 = Carbonic anhydrase 12 (Homo sapiens, UniProt O43570); test: Inhibition of human recombinant carbonic anhydrase 12 expressed in Escherichia coli preincubated for 6 hrs by stopped flow CO2 hydrase assay
Carbonic anhydrase 1 = Carbonic anhydrase 1 (Homo sapiens, UniProt P00915); test: Inhibition of human recombinant carbonic anhydrase 1 expressed in Escherichia coli preincubated for 6 hrs by stopped flow CO2 hydrase assay
Sequence of Carbonic anhydrase 1 (P00915 whole entry): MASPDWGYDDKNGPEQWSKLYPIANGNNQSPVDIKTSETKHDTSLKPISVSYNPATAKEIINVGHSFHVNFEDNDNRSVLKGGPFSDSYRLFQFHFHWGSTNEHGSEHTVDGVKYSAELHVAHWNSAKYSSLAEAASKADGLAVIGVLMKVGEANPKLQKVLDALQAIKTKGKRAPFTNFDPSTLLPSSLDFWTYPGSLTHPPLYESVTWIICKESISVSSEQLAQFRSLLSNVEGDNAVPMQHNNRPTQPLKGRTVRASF

Carbonic anhydrase 2 = Carbonic anhydrase 2 (Homo sapiens, UniProt P00918); test: Inhibition of human recombinant carbonic anhydrase 2 expressed in Escherichia coli preincubated for 6 hrs by stopped flow CO2 hydrase assay

Sequence of Carbonic anhydrase 12 (O43570 whole entry): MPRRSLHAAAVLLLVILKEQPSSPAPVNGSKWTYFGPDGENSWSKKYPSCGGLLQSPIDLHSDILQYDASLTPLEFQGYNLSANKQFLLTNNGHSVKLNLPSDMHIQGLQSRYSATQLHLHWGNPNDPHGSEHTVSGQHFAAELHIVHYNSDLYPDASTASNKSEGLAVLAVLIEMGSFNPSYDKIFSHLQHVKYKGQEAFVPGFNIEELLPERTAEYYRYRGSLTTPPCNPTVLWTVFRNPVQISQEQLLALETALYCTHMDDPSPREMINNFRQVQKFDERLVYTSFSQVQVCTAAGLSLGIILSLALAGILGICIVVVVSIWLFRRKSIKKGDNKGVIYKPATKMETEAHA

Structure (SMILES)	Ki (Carbonic anhydrase 9)	other results
Nc1c(C(=O)N/N=C2\C(=O)Nc3ccccc32)cnn1-c1ccc(S(N)(=O)=O)cc1	2.8 nM	
Cc1ccc2c(c1)/C(=N/NC(=O)c1cc(-c3ccccc3)n(-c3ccc(S(N)(=O)=O)cc3)n1)C(=O)N2	4.7 nM	
NS(=O)(=O)c1ccc(-n2nc(C(=O)N/N=C3\C(=O)Nc4ccc(Br)cc43)cc2-c2ccccc2)cc1	20 nM	
NS(=O)(=O)c1ccc(-n2nc(C(=O)N/N=C3\C(=O)Nc4ccc(Cl)cc43)cc2-c2ccccc2)cc1	7.4 nM	
Nc1c(C(=O)N/N=C2\C(=O)Nc3ccc(Br)cc32)cnn1-c1ccc(S(N)(=O)=O)cc1	9.4 nM	
NS(=O)(=O)c1ccc(-n2ncc(C(=O)N/N=C3\C(=O)Nc4ccc([N+](=O)[O-])cc43)c2-c2ccccc2)cc1	15.7 nM	
NS(=O)(=O)c1ccc(-n2ncc(C(=O)N/N=C3\C(=O)Nc4ccc(Cl)cc43)c2-c2ccccc2)cc1	9.7 nM	
NS(=O)(=O)c1ccc(-n2ncc(C(=O)N/N=C3\C(=O)N(Cc4ccccc4)c4ccccc43)c2-c2ccccc2)cc1		Ki (Carbonic anhydrase 12): 6.5 nM
Nc1c(C(=O)N/N=C2\C(=O)Nc3ccc(Cl)cc32)cnn1-c1ccc(S(N)(=O)=O)cc1	2.5 nM	
NS(=O)(=O)c1ccc(-n2nc(C(=O)N/N=C3\C(=O)Nc4ccccc43)cc2-c2ccccc2)cc1	8.8 nM	

More lines, main results first:

Ki (Carbonic anhydrase 9)	Structure (SMILES)	other results
52.9 nM	NS(=O)(=O)c1ccc(-n2ncc(C(=O)N/N=C3\C(=O)Nc4ccccc43)c2-c2ccccc2)cc1	
7.8 nM	NS(=O)(=O)c1ccc(-n2ncc(C(=O)N/N=C3\C(=O)Nc4ccc(Br)cc43)c2-c2ccccc2)cc1	
3.5 nM	COc1ccc2c(c1)/C(=N/NC(=O)c1cnn(-c3ccc(S(N)(=O)=O)cc3)c1N)C(=O)N2	
7.4 nM	Nc1c(C(=O)N/N=C2\C(=O)Nc3ccc([N+](=O)[O-])cc32)cnn1-c1ccc(S(N)(=O)=O)cc1	Ki (Carbonic anhydrase 1): 70.4 nM; Ki (Carbonic anhydrase 2): 23.1 nM; Ki (Carbonic anhydrase 12): 5.4 nM
